This is an account of results in ChEMBL document CHEMBL1201862, “PubChem BioAssay data set” (2004).

The structures appear in SMILES notation. Activity calls are given as the source filed them.

For experiment [1], the target named is T1, Insulin-degrading enzyme (Homo sapiens, UniProt P14735).
T1 sequence (P14735 whole entry): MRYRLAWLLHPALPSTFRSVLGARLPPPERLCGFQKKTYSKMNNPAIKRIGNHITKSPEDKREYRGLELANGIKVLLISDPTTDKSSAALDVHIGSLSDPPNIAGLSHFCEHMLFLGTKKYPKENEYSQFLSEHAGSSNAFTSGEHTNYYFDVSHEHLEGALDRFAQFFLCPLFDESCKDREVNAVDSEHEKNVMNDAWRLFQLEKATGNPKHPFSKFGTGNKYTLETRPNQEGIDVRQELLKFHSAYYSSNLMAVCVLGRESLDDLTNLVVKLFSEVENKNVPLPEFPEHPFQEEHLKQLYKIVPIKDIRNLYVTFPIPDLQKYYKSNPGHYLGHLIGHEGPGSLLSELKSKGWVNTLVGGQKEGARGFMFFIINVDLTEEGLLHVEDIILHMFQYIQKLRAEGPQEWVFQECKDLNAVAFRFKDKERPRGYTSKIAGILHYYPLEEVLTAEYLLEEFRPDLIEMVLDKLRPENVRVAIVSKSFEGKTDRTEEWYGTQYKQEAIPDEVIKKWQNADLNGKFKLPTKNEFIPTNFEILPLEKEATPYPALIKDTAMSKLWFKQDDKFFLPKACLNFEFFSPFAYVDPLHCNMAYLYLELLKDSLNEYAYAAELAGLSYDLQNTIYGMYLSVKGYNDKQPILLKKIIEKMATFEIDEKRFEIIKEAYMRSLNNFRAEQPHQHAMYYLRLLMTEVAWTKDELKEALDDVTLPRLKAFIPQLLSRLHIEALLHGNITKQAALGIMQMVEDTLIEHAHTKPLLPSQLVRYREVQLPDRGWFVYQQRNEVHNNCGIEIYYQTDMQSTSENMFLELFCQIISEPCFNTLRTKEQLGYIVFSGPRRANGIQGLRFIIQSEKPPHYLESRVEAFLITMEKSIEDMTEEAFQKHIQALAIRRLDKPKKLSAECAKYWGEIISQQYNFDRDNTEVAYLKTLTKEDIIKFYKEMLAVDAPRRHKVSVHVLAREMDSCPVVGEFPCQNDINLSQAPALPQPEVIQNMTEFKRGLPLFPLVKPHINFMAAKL
Description: recombinant IDE activation, cell-free – biochemical, fluorescence polarization, counter-screen for IDE activator project, dose response (AID 588681). A general note: In fluorescence polarisation assays a small probe gives low polarisation when free and higher when bound to something large.

Experiment [2] concerns the target T1, Insulin-degrading enzyme. Description: cellular IDE activation of Abeta substrate cleavage – fluorescence polarization, HEK cells, dose response (AID 588439). In kind it is functional, cell-based.
Experiment [3] concerns HEK293. The experiment in a line: membrane integrity loss in HEK cells – cell-based, fluorescence, cytotoxicity control for IDE activator project, dose response (AID 588440).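 Note: cytotoxicity by LDH release measuring loss of membrane integrity.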 In kind it is functional. As to conditions: Homo sapiens.
Experiment [4] concerns HEK293. Description: optical interference in Abeta FP readout, dose response, artefact control for IDE activator project, biochemical, fluorescence polarization (AID 588442). In kind it is functional, cell-based. Conditions: Homo sapiens.
The target in experiment [5] is T2, High affinity choline transporter 1 (Homo sapiens, UniProt Q9GZV3).
T2 sequence (Q9GZV3 whole entry): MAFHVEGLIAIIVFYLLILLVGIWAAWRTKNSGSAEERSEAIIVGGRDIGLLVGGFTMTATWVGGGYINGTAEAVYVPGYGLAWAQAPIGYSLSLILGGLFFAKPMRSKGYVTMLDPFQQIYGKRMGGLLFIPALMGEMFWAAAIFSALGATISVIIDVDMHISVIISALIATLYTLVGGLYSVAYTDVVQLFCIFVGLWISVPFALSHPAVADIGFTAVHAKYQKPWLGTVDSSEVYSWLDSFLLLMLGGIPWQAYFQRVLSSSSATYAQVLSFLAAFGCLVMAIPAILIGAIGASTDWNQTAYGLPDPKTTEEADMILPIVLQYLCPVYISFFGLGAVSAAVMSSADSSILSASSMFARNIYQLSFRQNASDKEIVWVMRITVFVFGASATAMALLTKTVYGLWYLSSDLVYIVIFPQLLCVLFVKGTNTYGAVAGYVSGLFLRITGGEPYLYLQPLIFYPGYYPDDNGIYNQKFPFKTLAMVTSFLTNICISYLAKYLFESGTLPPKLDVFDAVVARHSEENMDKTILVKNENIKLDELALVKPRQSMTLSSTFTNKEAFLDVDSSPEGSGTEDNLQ
Description: human choline transporter blockers, potency – cell-based, 5-point CRC, membrane potential dye, dose response (AID 504840). The class given is functional.

For experiment [6], the target named is T2, High affinity choline transporter 1. The experiment in a line: human choline transporter blockers, potency – cell-based, 10-point CRC, membrane potential dye, dose response (AID 588401).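 Note: membrane potential dye fluorescence of choline-evoked depolarization via CHT.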 In kind it is functional.
The subject of the next experiment is H9c2. Description: cells. In kind it is functional, cell-based. Conditions: Rattus norvegicus, H9c2, Myocardium.
The next experiment deals with Melanocortin receptor 4 (Homo sapiens, UniProt P32245). The class given is functional, cell-based.
For experiment [7], the target named is DNA (cytosine-5)-methyltransferase 1 (Homo sapiens, UniProt P26358). The experiment in a line: inhibition of DNA methylation by DNMT1 – biochemical, fluorescent molecular beacon, confirmation (AID 602386). The class given is functional.
Experiment [8] addresses T3, Small ubiquitin-related modifier 1 (Homo sapiens, UniProt P63165). The experiment in a line: SUMO1 protein interaction blockers, potency – biochemical, fluorescence polarization, uHTS hits, dose response (AID 624382). In kind it is functional. Conditions: read-out: IC50_Mean.
The target in experiment [9] is T3, Small ubiquitin-related modifier 1. Description: SUMO1 protein-protein binding blockers, potency – biochemical, FRET, dose response (AID 624383). As to conditions: read-out: IC50_Mean. The class given is functional.
A further experiment has as its target Albumin (Bos taurus, UniProt P02769). Description: Counterscreen for inhibitors of T-cell receptor (TCR)-CD3 interaction: Fluorescence-based biochemical high throughput dose response assay to identify inhibitors of T-cell receptor (TCR)-CD3 interaction using a TAMRA-labeled BSA probe. In kind it is functional. For orientation: A counterscreen serves to expose hits that act by an unwanted route or on another target.

In experiment [10] the target is T4, Apoptotic protease-activating factor 1 (Homo sapiens, UniProt O14727).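 Note: caspase-3 cleavage of fluorogenic Rh110 DEVD substrate downstream of apoptosome activation.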
T4 sequence (O14727 whole entry): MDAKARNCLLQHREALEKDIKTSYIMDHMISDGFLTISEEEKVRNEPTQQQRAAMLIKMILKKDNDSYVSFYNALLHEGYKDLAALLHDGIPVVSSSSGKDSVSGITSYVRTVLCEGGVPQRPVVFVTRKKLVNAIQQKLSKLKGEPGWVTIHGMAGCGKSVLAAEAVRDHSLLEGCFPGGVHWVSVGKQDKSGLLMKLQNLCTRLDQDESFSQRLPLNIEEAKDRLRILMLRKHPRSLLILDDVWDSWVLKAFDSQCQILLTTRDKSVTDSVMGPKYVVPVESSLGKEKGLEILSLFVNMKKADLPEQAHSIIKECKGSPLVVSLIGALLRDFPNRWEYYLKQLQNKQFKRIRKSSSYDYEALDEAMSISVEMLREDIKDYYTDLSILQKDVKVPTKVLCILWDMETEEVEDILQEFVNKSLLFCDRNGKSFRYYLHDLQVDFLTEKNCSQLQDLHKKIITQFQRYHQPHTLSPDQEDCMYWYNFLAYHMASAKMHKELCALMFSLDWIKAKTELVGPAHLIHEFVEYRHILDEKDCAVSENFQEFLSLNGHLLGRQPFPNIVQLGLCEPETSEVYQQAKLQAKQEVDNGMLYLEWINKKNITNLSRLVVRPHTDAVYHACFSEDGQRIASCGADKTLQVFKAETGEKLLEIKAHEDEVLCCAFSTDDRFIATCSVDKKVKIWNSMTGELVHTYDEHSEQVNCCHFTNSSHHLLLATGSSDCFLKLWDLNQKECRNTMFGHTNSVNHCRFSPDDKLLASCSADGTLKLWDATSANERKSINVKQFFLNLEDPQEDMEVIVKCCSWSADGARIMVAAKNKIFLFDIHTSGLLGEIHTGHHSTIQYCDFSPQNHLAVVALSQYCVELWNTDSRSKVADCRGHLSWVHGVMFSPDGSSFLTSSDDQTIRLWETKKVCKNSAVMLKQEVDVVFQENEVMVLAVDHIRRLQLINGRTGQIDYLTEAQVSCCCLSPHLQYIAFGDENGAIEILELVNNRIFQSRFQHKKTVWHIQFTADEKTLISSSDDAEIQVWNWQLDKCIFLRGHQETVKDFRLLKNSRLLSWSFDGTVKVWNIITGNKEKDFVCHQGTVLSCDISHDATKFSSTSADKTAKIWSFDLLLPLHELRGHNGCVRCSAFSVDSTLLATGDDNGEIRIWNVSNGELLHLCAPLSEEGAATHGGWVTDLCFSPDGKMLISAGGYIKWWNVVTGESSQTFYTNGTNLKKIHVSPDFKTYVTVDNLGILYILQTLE
The experiment in a line: SAR analysis of small molecule Activators of Apaf-1 in a Fluorescent assay. The class given is functional. Conditions: read-out: EC50_Mean.

For experiment [11], the target named is Melanin-concentrating hormone receptor 1 (Homo sapiens, UniProt Q99705). The experiment in a line: Late-stage fluorescence-based counterscreen for antagonists of the G-protein coupled receptor 7 (GPR7): cell-based dose response assay to identify antagonists of the melanin-concentrating hormone receptor 1 (MCHR1) Set 5. The class given is functional.
Sequence of Melanin-concentrating hormone receptor 1 (Q99705 whole entry): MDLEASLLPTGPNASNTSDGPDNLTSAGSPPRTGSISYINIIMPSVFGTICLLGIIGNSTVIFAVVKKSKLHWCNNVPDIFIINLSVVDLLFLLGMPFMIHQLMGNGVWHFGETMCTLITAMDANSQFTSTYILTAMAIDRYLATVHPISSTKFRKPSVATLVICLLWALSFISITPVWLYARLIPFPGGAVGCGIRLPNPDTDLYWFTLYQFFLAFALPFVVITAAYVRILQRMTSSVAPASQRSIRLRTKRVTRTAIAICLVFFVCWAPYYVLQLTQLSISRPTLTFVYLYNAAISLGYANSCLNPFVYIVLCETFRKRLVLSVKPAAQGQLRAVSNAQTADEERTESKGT

T3 sequence (P63165 whole entry): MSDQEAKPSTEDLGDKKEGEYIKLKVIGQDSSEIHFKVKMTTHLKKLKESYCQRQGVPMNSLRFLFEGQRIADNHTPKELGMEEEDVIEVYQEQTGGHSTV
Sequence of Albumin (P02769 whole entry): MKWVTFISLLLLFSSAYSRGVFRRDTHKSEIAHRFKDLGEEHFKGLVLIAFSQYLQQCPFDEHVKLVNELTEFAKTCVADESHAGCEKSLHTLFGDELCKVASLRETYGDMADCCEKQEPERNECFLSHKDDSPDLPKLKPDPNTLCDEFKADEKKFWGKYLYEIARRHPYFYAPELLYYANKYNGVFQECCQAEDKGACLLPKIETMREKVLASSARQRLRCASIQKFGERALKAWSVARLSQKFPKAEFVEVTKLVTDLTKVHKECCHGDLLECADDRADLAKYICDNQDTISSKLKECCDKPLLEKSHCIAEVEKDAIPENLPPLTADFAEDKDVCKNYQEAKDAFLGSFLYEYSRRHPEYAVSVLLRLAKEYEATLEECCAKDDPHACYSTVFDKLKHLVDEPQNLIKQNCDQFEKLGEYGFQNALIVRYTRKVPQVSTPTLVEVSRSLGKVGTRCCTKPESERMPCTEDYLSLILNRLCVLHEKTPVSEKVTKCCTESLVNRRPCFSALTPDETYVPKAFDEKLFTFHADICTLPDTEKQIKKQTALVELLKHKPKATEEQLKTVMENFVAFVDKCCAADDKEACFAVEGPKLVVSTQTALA
Sequence of DNA (cytosine-5)-methyltransferase 1 (P26358 whole entry): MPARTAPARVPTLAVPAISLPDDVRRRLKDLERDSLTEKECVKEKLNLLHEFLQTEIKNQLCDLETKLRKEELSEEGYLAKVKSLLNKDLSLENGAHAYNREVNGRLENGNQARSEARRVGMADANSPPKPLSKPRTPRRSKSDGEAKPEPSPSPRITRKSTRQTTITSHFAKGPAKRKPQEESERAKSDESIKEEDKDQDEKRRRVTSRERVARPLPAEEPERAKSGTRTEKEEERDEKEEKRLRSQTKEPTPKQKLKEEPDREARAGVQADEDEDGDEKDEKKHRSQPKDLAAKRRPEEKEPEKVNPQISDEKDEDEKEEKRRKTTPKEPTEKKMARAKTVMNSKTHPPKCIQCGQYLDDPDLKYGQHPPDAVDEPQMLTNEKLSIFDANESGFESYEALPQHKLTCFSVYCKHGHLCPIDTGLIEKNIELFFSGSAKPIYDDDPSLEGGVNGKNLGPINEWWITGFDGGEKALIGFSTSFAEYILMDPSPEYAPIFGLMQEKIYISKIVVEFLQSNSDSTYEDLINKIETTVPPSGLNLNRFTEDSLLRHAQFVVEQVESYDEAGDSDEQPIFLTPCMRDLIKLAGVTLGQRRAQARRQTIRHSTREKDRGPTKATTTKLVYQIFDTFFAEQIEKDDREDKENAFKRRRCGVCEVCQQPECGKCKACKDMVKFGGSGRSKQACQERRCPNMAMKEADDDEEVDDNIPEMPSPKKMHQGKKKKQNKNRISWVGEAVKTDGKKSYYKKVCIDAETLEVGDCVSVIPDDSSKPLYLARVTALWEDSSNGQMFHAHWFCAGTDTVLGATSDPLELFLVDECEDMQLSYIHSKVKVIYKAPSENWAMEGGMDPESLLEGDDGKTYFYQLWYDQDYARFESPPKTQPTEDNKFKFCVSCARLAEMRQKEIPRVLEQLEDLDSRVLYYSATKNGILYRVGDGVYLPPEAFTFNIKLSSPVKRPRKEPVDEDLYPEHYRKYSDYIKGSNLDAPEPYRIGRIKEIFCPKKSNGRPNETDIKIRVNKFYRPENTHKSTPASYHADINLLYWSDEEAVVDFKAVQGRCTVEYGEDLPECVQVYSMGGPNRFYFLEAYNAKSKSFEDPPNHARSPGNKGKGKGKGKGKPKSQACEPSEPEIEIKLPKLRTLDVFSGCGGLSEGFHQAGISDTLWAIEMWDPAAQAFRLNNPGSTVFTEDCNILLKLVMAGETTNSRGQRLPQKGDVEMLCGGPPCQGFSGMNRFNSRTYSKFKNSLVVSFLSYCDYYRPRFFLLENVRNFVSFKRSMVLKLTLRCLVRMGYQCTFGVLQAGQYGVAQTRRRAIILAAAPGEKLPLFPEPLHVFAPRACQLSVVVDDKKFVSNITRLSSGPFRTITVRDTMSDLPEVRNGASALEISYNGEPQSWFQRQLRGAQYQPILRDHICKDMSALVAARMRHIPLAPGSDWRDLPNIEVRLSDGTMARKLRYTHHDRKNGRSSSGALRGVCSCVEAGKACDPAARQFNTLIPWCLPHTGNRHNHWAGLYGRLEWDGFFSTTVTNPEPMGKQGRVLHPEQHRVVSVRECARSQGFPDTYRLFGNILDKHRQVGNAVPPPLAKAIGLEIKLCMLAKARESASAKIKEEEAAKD
Sequence of Melanocortin receptor 4 (P32245 whole entry): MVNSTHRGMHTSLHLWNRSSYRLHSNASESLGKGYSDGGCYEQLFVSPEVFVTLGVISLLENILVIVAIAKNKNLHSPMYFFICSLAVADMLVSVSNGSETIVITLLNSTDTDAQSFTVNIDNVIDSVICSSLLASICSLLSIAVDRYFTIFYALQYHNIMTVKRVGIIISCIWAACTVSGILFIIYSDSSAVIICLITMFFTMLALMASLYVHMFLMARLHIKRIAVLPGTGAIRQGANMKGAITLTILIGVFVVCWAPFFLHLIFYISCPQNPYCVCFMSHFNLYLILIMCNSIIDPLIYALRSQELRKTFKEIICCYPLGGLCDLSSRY

Regarding `O=C1c2ccccc2C(Nc2ccc3[nH]c(-c4cccnc4)nc3c2)N1Cc1ccco1` (stereo unspecified), the EC50 on Insulin-degrading enzyme [1] was > 54.6 µM (inactive); at Insulin-degrading enzyme [2] it was > 54.6 µM (inactive); with HEK293 [4], > 55.9 µM (inactive). Besides, the IC50 in the experiment with HEK293 [3] was > 89.1 µM (inactive).

As for `COc1ccc(-c2nc(C=O)cs2)cc1`, the values for the IC50 in experiment [5] and in [6] were 2.88 µM (active) and 3.57 µM (active), respectively.

As to `O=C(Cc1ccc(-n2c(=O)c3ccccc3n(Cc3ccccc3F)c2=O)cc1)NCC1CCCO1` (stereo unspecified), the results for the IC50 in experiment [5] and in experiment [6] were 7.14 µM (active) and 3.98 µM (active), respectively.

`COc1cc(-c2cc(NC=O)c3ncc(-c4ccc(C(C)=O)cc4)n3c2)cc(OC)c1OC`: the IC50 with H9c2 is > 79 µM (inactive). The EC50 at Melanocortin receptor 4 was > 89.2 µM (inactive).

Take `c1coc(-c2ccc3nncn3c2)c1`: the IC50 in [7] was 4.58 µM (active); in [8], > 66.6 µM (inactive); in experiment [9], 7.19 µM (active); on Albumin, > 94.2 µM (inactive).

On to `CCOc1ccccc1NC(=O)CCS(=O)(=O)c1ccc2c(c1)OCCO2`, for which the EC50 in experiment [10] was > 100 µM (inactive).

Consider `COc1ccc(Oc2c(Cl)cnn(Cc3ccccc3C(C)C)c2=O)cc1`, for which the IC50 in experiment [11] is 1.95 µM (active).
